From patent US20200345725A1, “Methods and Compositions for Treating Cancer” (Omeros Corporation, priority 2019, published 2020)

How the values were obtained:
Type in all cases: cell-based
[1] = test system: co-cultured mouse C57BL/6+DBA1 splenocytes; assay: Cytokines in C57BL/6 + DBA1 splenocyte co-culture; details: 30 μM; day 6 after mixing
Experimental: In order to stimulate T cells in mice, splenocytes obtained from two different mouse strains, C57BL/6 and DBA1, were mixed in culture.
The effect of compound 10 on production of cytokines (IFN-γ, IL-5, TNF-α, IL-2, IL-6, IL-4, IL-10, IL-9, IL17A, IL17F, IL-21, IL-22 and IL-13) in mouse splenocyte co-cultures was determined as follows. Splenocytes obtained from two different mouse strains, C57BL/6 and DBA1, were mixed in culture in the presence or absence of 30 μM compound 10. Cytokine production of IFN-γ, IL-5, TNF-α, IL-2, IL-6, IL-4, IL-10, IL-9, IL-17A, IL-17F, IL-21, IL-22 and IL-13 was measured in the co-culture supernatant at day 4 and day 6 after mixing. Cytokine levels were determined by LEGENDplex™ bead-based immunoassays from BioLegend (San Diego, Calif.) according to the manufacturer's instructions.

[2] = test system: mouse splenocytes; assay: IL-2 in stimulated splenocyte cultures from WT or GPR174 KO mice; details: 48 hours; 10 μM; vs vehicle
Experimental: GPR174 knockout (KO) mice (referred to also as “FKSG79”) were generated as described in Gragerov A. et al., PNAS vol 104(36): 14406-14411, 2007. Splenocyte cultures were generated from four GPR174 KO mice and four wild-type (WT) mice. Single-cell suspension of individual mouse spleens were pelleted by centrifugation, resuspended in RBC lysis buffer to remove erythrocytes, spun down again and resuspended in T cell medium (RPMI-1640, 10% FBS, 6 mM L-Glutamine, 12.5 mM HEPES, 50 μM 2-mercaptoethanol, Pen/Strep). Thus, prepared splenocytes were plated into 96-well plates at a density of 3×10^6 cells/mL, 250 μL/well and stimulated with 100 ng/mL of anti-CD3 antibodies and 100 ng/mL of anti-CD28. Cells were treated with either vehicle (0.1% DMSO) or GPR174 inhibitory Compound 10 (10 μM). 48 hours later, cell supernatants were analyzed for cytokine levels using LEGENDplex mouse Th1 cytokine detection kit (BioLegend). Four GPR174 KO and four WT spleens were analyzed, each in triplicate.

[3] = target: T1, WT GPR174 (Homo sapiens, UniProt Q9BXC1); assay: Inhibition of PS-induced GPR174 Gs signaling (GloSensor), HEK293 stably transfected with WT GPR174
T1 construct: expressed in transfected cells; host or cells: HEK293
Experimental: The signaling experiment was conducted as described for FIG. 45, but instead of transient transfection a pool of HEK293 cells stably transfected with either WT GPR174 (for compound 10, as shown in FIG. 47A) or GPR174-v38 for the rest of the tested compounds, as shown in FIGS. 47B-47F)) and GloSensor cAMP biosensor was used. A dilution series of each of the GPR174 inhibitory compounds 10 (Group I), 6 (Group I), 11 (Group I), 20 (Group II), 23 (Group IV), and 30 (Group IV) were prepared in DMSO. After the plates were pre-read in a luminometer, 1 μL of the compound dilution was added per well (with control wells receiving 1 μL of DMSO) followed by addition of PS liposomes to the final concentration of 1 μM. Plates were read in a luminometer after 15 minutes of incubation. The ratio of luminescence after PS addition to the pre-read luminescence value was used as a measure of receptor-mediated signaling.

[4] = test system: human PBMC; assay: IL-2 in supernatants of human PBMC stimulated with anti-CD3 and anti-CD28, ELISA; details: human PBMC donor 8, 24 hours post-stimulation; compound 10 1 μM, ZM-241385 0.1 μM, APCP 10 μM; FIG. 71
Experimental: Human PBMCs, obtained from a human volunteer donor (donor 8), were dispensed in X-vivo15 media (Lonza) supplemented with Glutamax, penicillin and streptomycin, at density of 1×10^6 cells/well in a 96-well flat-bottom plate and were cultured in quadruplicate for 3 hours in the presence of:
GPR174 inhibitory compound 10 (1 μM);
CD73 inhibitory compound, adenosine 5′-(a,p-methylene)diphosphate sodium salt (APCP, Tocris, 10 μM);
Combinations of the above agents;
After which 1 μg/mL anti-CD3 antibody (UCHT1) and 0.1 μg/mL anti-CD28 antibody (CD28.2) were added to activate T cells. Supernatants from these cells were collected at 24 hours post-stimulation and the levels of IL-2 were determined by ELISA.

[5] = target: T2, GPR174 (Mus musculus, UniProt Q3U507); assay: IL-2 production from purified GPR174 WT and GPR174-KO mouse T cells with PS liposomes (FIG. 67); details: GPR174 WT mouse T cells, in presence of PS liposomes, FIG. 67
T2 construct: endogenous in cells; host or cells: purified mouse T cells from WT (and GPR174-KO) mice

[6] = test system: GPR174; assay: as above
[7] = test system: human PBMCs; assay: Treg (FoxP3/Helios) flow cytometry in stimulated human PBMC
Experimental: (§1) A fraction of the cells was taken for staining on day 3 post-stimulation, while the rest of the cells were split 1:4 with fresh medium and used for staining on day 7 post-stimulation. To determine the fraction of natural Treg (nTreg) cells (FoxP3^+Helios^+), PBMCs were washed, stained with fluorescently labeled anti-CD4 antibodies, fixed, permeabilized and stained with a mixture of fluorescent anti-FoxP3 and anti-Helios antibodies. Labeled cells were analyzed by flow cytometry for populations stained for these three markers. Each experiment was performed in triplicate and was repeated five times.
as §1, with “(FoxP3^+Helios^−),” for “(FoxP3^+Helios^+),”, “three” for “five”
as §1, with “day 2” for “day 3”, “(FoxP3^+Helios^+), PBMC” for “(FoxP3^+Helios^+), PBMCs”

T1 sequence (Q9BXC1 whole entry): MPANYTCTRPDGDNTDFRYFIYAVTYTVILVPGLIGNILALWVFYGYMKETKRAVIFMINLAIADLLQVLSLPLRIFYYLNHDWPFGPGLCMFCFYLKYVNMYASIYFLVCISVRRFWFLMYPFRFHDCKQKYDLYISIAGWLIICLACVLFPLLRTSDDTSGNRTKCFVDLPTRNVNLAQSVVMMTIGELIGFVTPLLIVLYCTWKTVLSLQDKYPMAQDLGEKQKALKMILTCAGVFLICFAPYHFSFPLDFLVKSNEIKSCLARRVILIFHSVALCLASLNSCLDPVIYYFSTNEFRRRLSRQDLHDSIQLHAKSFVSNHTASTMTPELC
T2 sequence (Q3U507 whole entry): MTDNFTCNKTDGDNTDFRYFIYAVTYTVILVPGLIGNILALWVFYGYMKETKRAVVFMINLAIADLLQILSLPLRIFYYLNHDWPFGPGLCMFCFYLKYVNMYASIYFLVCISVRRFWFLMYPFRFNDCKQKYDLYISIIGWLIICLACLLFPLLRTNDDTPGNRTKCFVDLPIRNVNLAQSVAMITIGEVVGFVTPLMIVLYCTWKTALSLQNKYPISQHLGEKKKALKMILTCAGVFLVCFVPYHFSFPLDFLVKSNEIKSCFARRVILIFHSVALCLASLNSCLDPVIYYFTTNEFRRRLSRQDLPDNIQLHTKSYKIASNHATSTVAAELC

CC1CCN(c2cc(N3CCN(S(=O)(=O)c4ccccc4)CC3)c([N+](=O)[O-])cc2F)CC1 [compound 10] was tested, and the “quantities of cytokines produced during splenocyte allogeneic stimulation” value [1] was “strong alteration”, the “IL-2 in culture supernatants, GPR174 KO splenocytes” value [2] was “no significant difference” and the “IL-2 in culture supernatants, WT splenocytes” value [2] was “increased”. The “PS-mediated GPR174 Gs signaling (FIG. 47A)” value ([3]; PS liposomes 1 μM) was “inhibited”, the IC50 ([3]; PS liposomes 1 μM, WT GPR174, read-out: apparent IC50, inhibition of PS-induced GPR174 Gs signaling) was 20 to 40 nM and the “inhibition of the PS signaling through the GPR174 receptor” value ([3]; at concentrations of 1-2 μM) was “almost complete inhibition”. For the same compound, the “increase of IL-2 levels” value [4] was 1.4 fold, the “reversal of PS liposome-mediated suppression of IL-2, fold change” value [5] was 3.5 fold and the “effect on IL-2 in presence of PS liposomes, fold change” value ([6]; GPR174-KO mouse T cells, FIG. 67) was 0.9 fold. For the same compound, the “effect on T cell response in the absence of PS or GPR174” value ([6]; purified human and mouse T cells) was “negligible effect”, the “percentage of FoxP3+Helios+ (nTreg) cells in the CD4+ cell population” value ([7]; Example 6, day 7 post-stimulation, 100 μM, vs vehicle) was “significantly reduced” and the “percentage of FoxP3+Helios+ (nTreg) cells in the CD4+ cell population” value ([7]; Example 8, day 7, single donor, 3, 10, 30 μM) was “significantly reduced”. For the same compound, the “FoxP3+Helios+ (nTreg) cells in the CD4+ cell population, fraction of vehicle” value ([7]; Example 9, day 7, eight donors, 30 μM) was “significantly reduced” and the “percentage of FoxP3+Helios− cells in the CD4+ cell population” value ([7]; day 3 post-stimulation, 100 μM, vs vehicle) was “significantly increased”.
